Where a SMILES comes first, the peptide text is derived from it. Bridges are numbered along the chain shown (N, C = ends). [ ]: non-standard residue; d: D form. NMeR = CN[C@@H](CCCNC(=N)N)C(=O)O; Pen = CC(C)(S)[C@H](N)C(=O)O
Columns and labels:
[1] = tested on: Integrin alpha-IIb/beta-3 (Canis familiaris); experiment: Inhibition of canine platelet-rich plasma induced by ADP; set-up: concentration or dose not given beside the values; conditions: Canis lupus familiaris, concentration not given here
[2] = molecular target: Integrin alpha-IIb/beta-3 (Homo sapiens, UniProt P05106+P08514); experiment: Inhibition of 125[I] Fibrinogen binding to isolated purified human fibrinogen receptor; type: protein-complex assay
Chain of Integrin alpha-IIb/beta-3 (P05106 27-788 limits assumed): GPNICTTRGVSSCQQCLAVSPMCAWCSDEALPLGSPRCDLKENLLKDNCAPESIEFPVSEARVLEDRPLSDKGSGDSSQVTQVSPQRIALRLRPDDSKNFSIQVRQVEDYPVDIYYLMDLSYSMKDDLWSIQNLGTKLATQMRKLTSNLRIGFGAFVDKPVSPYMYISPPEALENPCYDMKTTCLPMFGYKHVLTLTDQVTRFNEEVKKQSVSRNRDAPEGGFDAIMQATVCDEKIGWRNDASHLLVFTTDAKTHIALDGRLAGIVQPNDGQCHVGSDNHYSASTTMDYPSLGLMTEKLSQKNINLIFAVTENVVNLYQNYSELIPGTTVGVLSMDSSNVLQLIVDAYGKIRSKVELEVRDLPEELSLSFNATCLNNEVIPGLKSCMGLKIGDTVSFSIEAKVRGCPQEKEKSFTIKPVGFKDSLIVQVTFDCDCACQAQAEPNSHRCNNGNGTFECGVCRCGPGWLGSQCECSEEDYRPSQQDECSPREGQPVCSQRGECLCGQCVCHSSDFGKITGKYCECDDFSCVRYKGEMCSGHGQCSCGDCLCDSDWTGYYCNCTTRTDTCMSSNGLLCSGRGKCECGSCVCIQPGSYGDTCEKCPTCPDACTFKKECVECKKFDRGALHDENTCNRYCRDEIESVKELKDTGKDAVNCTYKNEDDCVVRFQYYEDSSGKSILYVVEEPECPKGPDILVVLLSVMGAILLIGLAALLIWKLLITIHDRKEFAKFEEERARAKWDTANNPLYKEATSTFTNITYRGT
Chain of Integrin alpha-IIb/beta-3 (P08514 32-887 limits assumed): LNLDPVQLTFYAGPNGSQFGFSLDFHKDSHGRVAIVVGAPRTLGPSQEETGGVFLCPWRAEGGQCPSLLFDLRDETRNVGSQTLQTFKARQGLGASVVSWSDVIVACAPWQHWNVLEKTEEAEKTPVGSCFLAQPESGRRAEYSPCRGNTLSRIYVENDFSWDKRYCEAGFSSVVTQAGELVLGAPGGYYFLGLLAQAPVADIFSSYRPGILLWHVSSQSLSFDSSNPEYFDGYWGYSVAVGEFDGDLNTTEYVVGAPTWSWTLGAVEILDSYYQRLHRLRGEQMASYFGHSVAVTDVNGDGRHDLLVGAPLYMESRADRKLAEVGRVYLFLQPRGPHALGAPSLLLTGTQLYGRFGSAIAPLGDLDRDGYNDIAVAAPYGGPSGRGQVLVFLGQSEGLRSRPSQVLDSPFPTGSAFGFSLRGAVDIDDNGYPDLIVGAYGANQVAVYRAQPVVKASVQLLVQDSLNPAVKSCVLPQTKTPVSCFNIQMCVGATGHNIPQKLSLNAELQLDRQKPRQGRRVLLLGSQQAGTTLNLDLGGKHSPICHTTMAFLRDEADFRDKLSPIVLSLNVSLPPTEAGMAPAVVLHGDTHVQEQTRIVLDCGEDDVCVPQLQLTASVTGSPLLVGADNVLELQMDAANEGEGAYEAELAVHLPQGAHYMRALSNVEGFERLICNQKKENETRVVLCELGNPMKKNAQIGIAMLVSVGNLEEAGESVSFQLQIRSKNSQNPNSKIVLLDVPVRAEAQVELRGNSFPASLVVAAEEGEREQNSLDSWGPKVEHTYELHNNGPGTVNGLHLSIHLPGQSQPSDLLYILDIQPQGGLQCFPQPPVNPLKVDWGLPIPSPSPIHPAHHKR
Chain of Integrin alpha-IIb/beta-3 (P08514 891-1039 limits assumed): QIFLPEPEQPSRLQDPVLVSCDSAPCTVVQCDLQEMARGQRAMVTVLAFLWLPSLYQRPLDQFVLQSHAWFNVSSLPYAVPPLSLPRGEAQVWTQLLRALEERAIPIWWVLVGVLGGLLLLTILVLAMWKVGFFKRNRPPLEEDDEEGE

CC(=O)N[C@H]1C(=O)N(C)[C@@H](CCCN=C(N)N)C(=O)NCC(=O)N[C@@H](CC(=O)O)C(=O)N[C@@H](C(N)=O)C(C)(C)SSC1(C)C
inhibition [1]: 100%

CC(=O)N[C@@H]1CSSC(C)(C)[C@H](C(N)=O)NC(=O)[C@@H](CC(=O)O)NC(=O)CN(C)C(=O)[C@@H](CCCN=C(N)N)NC1=O
inhibition [1]: 57%

Ac-HHLGGAKQAGDV-OH
Ki [2]: 14500 nM

CC(=O)N[C@H]1CSSC[C@@H](C(N)=O)NC(=O)[C@H](CO)NC(=O)[C@H](CC(=O)O)NC(=O)CNC(=O)[C@H](CCCN=C(N)N)NC1=O (Ac-CRGDSC-NH2; disulfide 1-6)
Ki [2]: 5300 nM

CC(=O)N[C@@H](Cc1c[nH]cn1)C(=O)N[C@@H](Cc1c[nH]cn1)C(=O)N[C@@H](CC(C)C)C(=O)NCC(=O)NCC(=O)N[C@@H](C)C(=O)N[C@@H](CCCCN)C(=O)N[C@H]1CSSC(C)(C)[C@H](C(N)=O)NC(=O)[C@H](CC(=O)O)NC(=O)CNC(=O)[C@H](CCCN=C(N)N)NC1=O
inhibition [1]: 100%

CC(=O)N[C@H]1CSSC(C)(C)[C@@H](C(N)=O)NC(=O)[C@H](CC(=O)O)NC(=O)CNC(=O)[C@H](CCCN=C(N)N)N(C)C1=O (Ac-C[NMeR]GD[Pen]-NH2; disulfide 1-5)
Ki [2]: 58 nM

CC(=O)N[C@H]1CSSC[C@@H](C(N)=O)NC(=O)[C@H](CC(=O)O)NC(=O)CNC(=O)[C@H](CCCN=C(N)N)NC1=O
Ki [2]: 780 nM

CC(=O)N[C@H]1C(=O)N[C@@H](CCCN=C(N)N)C(=O)NCC(=O)N[C@@H](CC(=O)O)C(=O)N[C@H](C(N)=O)CSSC1(C)C
inhibition [1]: 100%

CC(=O)N[C@@H]1CSSC(C)(C)[C@H](C(N)=O)NC(=O)[C@H](CC(=O)O)NC(=O)CNC(=O)[C@H](CCCN=C(N)N)NC(=O)CNC1=O
inhibition [1]: 100%

CC(=O)N[C@@H](CCCN=C(N)N)C(=O)NCC(=O)N[C@@H](CC(=O)O)C(=O)N[C@@H](Cc1ccc(O)cc1)C(N)=O (Ac-RGDY-NH2)
inhibition [1]: 98%

CC(=O)N[C@@H]1CSSC[C@@H](C(N)=O)NC(=O)[C@H](CC(=O)O)NC(=O)CNC(=O)[C@H](CCCN=C(N)N)NC(=O)CNC1=O
inhibition [1]: 100%

CC(=O)N[C@@H]1CSSC[C@H](C(N)=O)NC(=O)[C@@H](CC(=O)O)NC(=O)CNC(=O)[C@@H](CCCN=C(N)N)NC1=O
inhibition [1]: 55%

CC(=O)N[C@@H]1CSSC(C)(C)[C@H](C(N)=O)NC(=O)[C@H](CC(=O)O)NC(=O)CNC(=O)[C@@H](CCCNC(=N)N)NC1=O
Ki [2]: 720 nM

Reference: ChEMBL document CHEMBL1125778, “Development of a small RGD peptide fibrinogen receptor antagonist with potent antiaggregatory activity in vitro” (J Med Chem, 1991)
